Converted amounts (≈) assume the structure as drawn.
Target: T1, Hexokinase-4 (Homo sapiens, UniProt P35557)
T1 sequence (P35557 whole entry): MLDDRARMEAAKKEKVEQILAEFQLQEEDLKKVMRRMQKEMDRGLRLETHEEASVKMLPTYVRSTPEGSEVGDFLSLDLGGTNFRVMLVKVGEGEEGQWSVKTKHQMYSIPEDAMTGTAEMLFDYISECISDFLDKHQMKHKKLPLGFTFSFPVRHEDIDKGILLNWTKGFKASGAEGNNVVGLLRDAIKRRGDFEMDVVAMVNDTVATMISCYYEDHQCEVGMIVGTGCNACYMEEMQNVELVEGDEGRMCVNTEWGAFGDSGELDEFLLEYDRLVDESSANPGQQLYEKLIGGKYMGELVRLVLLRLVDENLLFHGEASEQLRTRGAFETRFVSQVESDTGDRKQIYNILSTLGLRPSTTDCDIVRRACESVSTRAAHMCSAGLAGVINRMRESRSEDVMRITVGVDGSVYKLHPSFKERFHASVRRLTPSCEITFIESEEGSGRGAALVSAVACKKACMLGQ
Experiment: Activation of human recombinant glucokinase using 5 mM glucose as substrate in presence of NAD+ by glucose 6-phosphate dehydrogenase coupled assay
Conditions: not given

First: CNC(=O)Nc1cc(Oc2cncc(C)c2)c(CCO)cn1
Second: CNC(=O)Nc1cc(Oc2cncc(C)c2)c(CCCCO)cn1
The EC50 of the first is 3.5-fold higher: 130 nM for the first, 37 nM for the second.

First: CNC(=O)Nc1cc(Oc2cncc(OC)c2)c([C@H]2COCCC2(F)F)cn1
Second: CNC(=O)Nc1cc(Oc2cncc(OC)c2)c([C@@H]2CCOC2)cn1
The EC50 of the first is 4.8-fold higher: 530 nM for the first, 110 nM for the second.

Going from `CNC(=O)Nc1cc(Oc2cncc(C)c2)c([C@H]2C[C@H](O)C2)cn1` to `CNC(=O)Nc1cc(Oc2cncc(C)c2)c([C@H]2C[C@@H](CO)C2)cn1`, the EC50 falls from 72 nM to 40 nM (1.8-fold). The second is the more potent here.

Compared with `CNC(=O)Nc1cc(Oc2cncc(OC)c2)c([C@@H]2CCCOC2)cn1`, `CCOCCc1cnc(NC(=O)NC)cc1Oc1cncc(C)c1` is 7.3-fold lower in EC50: 720 nM for the first, 98 nM for the second.

In the case of `CNC(=O)Nc1cc(Oc2cncc(C)c2)c(C(C)CO)cn1` (stereo unspecified), the EC50 is reported as 670 nM.

Target: T2, Hexokinase-4 (Homo sapiens) (UniProt P35557)
T2 sequence (whole entry): T1 sequence (P35557 whole entry)
Experiment: Activation of human recombinant glucokinase assessed as Vmax ratio using 0.16 to 80 mM of glucose as substrate in presence of NAD+ by glucose 6-phosphate dehydrogenase coupled assay relative to control
Conditions: not given

Compared with `CNC(=O)Nc1cc(Oc2cncc(C)c2)c([C@H]2C[C@@H]2C(C)(C)O)cn1` (relative stereo), `CNC(=O)Nc1cc(Oc2cncc(C)c2)c([C@H]2C[C@@H]2CO)cn1` (relative stereo) is higher in Ratio: 0.87 for the first, 1 for the second.

First: CNC(=O)Nc1cc(Oc2cncc(C)c2)c(CCO)cn1
Second: CNC(=O)Nc1cc(Oc2cncc(C)c2)c(CCCCO)cn1
The Ratio of the first is higher: 0.9 for the first, 0.87 for the second.

Compared with `CNC(=O)Nc1cc(Oc2cncc(C)c2)c([C@@H]2CC[C@@H](O)C2)cn1`, `CNC(=O)Nc1cc(Oc2cncc(C)c2)c([C@H]2C[C@H](O)C2)cn1` is lower in Ratio: 0.94 for the first, 0.92 for the second.

Going from `CNC(=O)Nc1cc(Oc2cncc(OC)c2)c([C@H]2COCCC2(F)F)cn1` to `CNC(=O)Nc1cc(Oc2cncc(OC)c2)c([C@@H]2CCOC2)cn1`, the Ratio rises from 0.89 to 1.1.

Compared with `CNC(=O)Nc1cc(Oc2cncc(OC)c2)c([C@@H]2CCCOC2)cn1`, `CNC(=O)Nc1cc(Oc2cncc(OC)c2)c([C@@H]2COCC[C@@H]2O)cn1` (relative stereo) is lower in Ratio: 0.94 for the first, 0.83 for the second.

Compared with `CCOCCc1cnc(NC(=O)NC)cc1Oc1cncc(C)c1`, `CNC(=O)Nc1cc(Oc2cncc(C)c2)c(C(C)CO)cn1` (stereo unspecified) is higher in Ratio: 0.84 for the first, 0.95 for the second.

For `CNC(=O)Nc1cc(Oc2cncc(C)c2)c([C@H]2C[C@@H](CO)C2)cn1`, the Ratio was 0.82.

Target: T2, Hexokinase-4 (Homo sapiens)
Experiment: Ratio of EC50 for activation of human recombinant glucokinase in presence of 4% HSA to EC50 for activation of human recombinant glucokinase in absence of 4% HSA
Conditions: not given

`CNC(=O)Nc1cc(Oc2cncc(C)c2)c(CCO)cn1` and `CNC(=O)Nc1cc(Oc2cncc(C)c2)c(CCCCO)cn1` fall in the same range of Ratio EC50: 1 to 3 for the first, 1 to 3 for the second.

`CCOCCc1cnc(NC(=O)NC)cc1Oc1cncc(C)c1` and `CNC(=O)Nc1cc(Oc2cncc(C)c2)c(C(C)CO)cn1` (stereo unspecified) fall in the same range of Ratio EC50: 1 to 3 for the first, 1 to 3 for the second.

Test system: not listed separately
Experiment: Solubility of the compound in PBS at pH 7.4
Assay type: physicochemical
Conditions: buffer

`CNC(=O)Nc1cc(Oc2cncc(C)c2)c(CCO)cn1` and `CNC(=O)Nc1cc(Oc2cncc(C)c2)c(CCCCO)cn1` are within 1.5-fold of each other in solubility: 450 µM (≈ 136 µg/mL) for the first, 500 µM (≈ 165 µg/mL) for the second.

In the case of `CCOCCc1cnc(NC(=O)NC)cc1Oc1cncc(C)c1`, the solubility is reported as 500 µM (≈ 165 µg/mL).

Target: T1, Hexokinase-4
Experiment: Activation of human recombinant glucokinase using 5 mM glucose as substrate in presence of NAD+ and 4% HSA by glucose 6-phosphate dehydrogenase coupled assay
Conditions: not given

First: CNC(=O)Nc1cc(Oc2cncc(C)c2)c(CCO)cn1
Second: CNC(=O)Nc1cc(Oc2cncc(C)c2)c(CCCCO)cn1
The EC50 of the first is 5.9-fold higher: 330 nM for the first, 56 nM for the second.

Compared with `CNC(=O)Nc1cc(Oc2cncc(OC)c2)c([C@H]2COCCC2(F)F)cn1`, `CNC(=O)Nc1cc(Oc2cncc(OC)c2)c([C@@H]2CCOC2)cn1` is 5.2-fold lower in EC50: 990 nM for the first, 190 nM for the second.

First: CNC(=O)Nc1cc(Oc2cncc(C)c2)c([C@H]2C[C@H](O)C2)cn1
Second: CNC(=O)Nc1cc(Oc2cncc(C)c2)c([C@H]2C[C@@H](CO)C2)cn1
The EC50 of the first is 1.6-fold higher: 110 nM for the first, 70 nM for the second. The second is the more potent here.

`CNC(=O)Nc1cc(Oc2cncc(OC)c2)c([C@@H]2CCCOC2)cn1` and `CCOCCc1cnc(NC(=O)NC)cc1Oc1cncc(C)c1` are the same in EC50: 110 nM for the first, 110 nM for the second.

`CNC(=O)Nc1cc(Oc2cncc(C)c2)c(C(C)CO)cn1` (stereo unspecified) gave an EC50 of 820 nM.

Target: T2, Hexokinase-4 (Homo sapiens)
Experiment: Activation of human recombinant glucokinase assessed as enzyme affinity for glucose […] as substrate in presence of NAD+ by glucose 6-phosphate dehydrogenase coupled assay
Conditions: not given

`CNC(=O)Nc1cc(Oc2cncc(C)c2)c([C@H]2C[C@@H]2C(C)(C)O)cn1` (relative stereo) and `CNC(=O)Nc1cc(Oc2cncc(C)c2)c([C@H]2C[C@@H]2CO)cn1` (relative stereo) are within 1.5-fold of each other in S0.5: 0.62 mM for the first, 0.58 mM for the second.

`CNC(=O)Nc1cc(Oc2cncc(C)c2)c(CCO)cn1` and `CNC(=O)Nc1cc(Oc2cncc(C)c2)c(CCCCO)cn1` are within 1.5-fold of each other in S0.5: 0.6 mM for the first, 0.54 mM for the second.

`CNC(=O)Nc1cc(Oc2cncc(C)c2)c([C@@H]2CC[C@@H](O)C2)cn1` and `CNC(=O)Nc1cc(Oc2cncc(C)c2)c([C@H]2C[C@H](O)C2)cn1` are within 1.5-fold of each other in S0.5: 0.47 mM for the first, 0.55 mM for the second.

`CNC(=O)Nc1cc(Oc2cncc(OC)c2)c([C@H]2COCCC2(F)F)cn1` and `CNC(=O)Nc1cc(Oc2cncc(OC)c2)c([C@@H]2CCOC2)cn1` are within 1.5-fold of each other in S0.5: 0.51 mM for the first, 0.53 mM for the second.

`CNC(=O)Nc1cc(Oc2cncc(OC)c2)c([C@@H]2CCCOC2)cn1` and `CNC(=O)Nc1cc(Oc2cncc(OC)c2)c([C@@H]2COCC[C@@H]2O)cn1` (relative stereo) are within 1.5-fold of each other in S0.5: 0.62 mM for the first, 0.66 mM for the second.

`CCOCCc1cnc(NC(=O)NC)cc1Oc1cncc(C)c1` and `CNC(=O)Nc1cc(Oc2cncc(C)c2)c(C(C)CO)cn1` (stereo unspecified) are within 1.5-fold of each other in S0.5: 0.59 mM for the first, 0.56 mM for the second.

`CNC(=O)Nc1cc(Oc2cncc(C)c2)c([C@H]2C[C@@H](CO)C2)cn1` showed an S0.5 of 0.57 mM.

Reference: ChEMBL document CHEMBL4425164, “5-Alkyl-2-urea-Substituted Pyridines: Identification of Efficacious Glucokinase Activators with Improved Properties” (ACS Med Chem Lett, 2016)
